Here are results for 19 compounds from patent US7829589B2, “Sulfonamide compounds and uses thereof” (Elixir Pharmaceuticals, Inc., priority 2005, dated 2010).

In data set [1] the test system is C57bl/6 mice. Put plainly: Ghrelin-induced food intake in mice dosed ip. The class given is in vivo. The note with it: 1, 3, 10, 30 mpk ip after ghrelin ip; food intake at 1, 2, 4, 6 hours; relative to vehicle. Here is the method:
Ad libidum low fat chow-fed male C57bl/6 mice were acclimated to individual housing for >5 days prior to the experiment. On the morning of the experiment food was removed from the cages and animals were then dosed ip (n=8/group) with either vehicle or ghrelin followed one minute later by a second ip injection containing either vehicle or one of several doses of compound (1, 3, 10, 30mpk ip). Immediately after the second dosing food was returned to the cages and food intake was measured 1, 2, 4 and 6 hours later.

The test system of the next data set is mice. Put plainly: Plasma HbA1c and lipid profile after 28 day dosing. The class given is in vivo. As to conditions: at 28 days. The source says:
(§1) Group housed, male, C57bl/6 mice received high fat diet and water ad lib to establish diet-induced obesity, and for the duration of the experiment. After acclimating to individual housing for at least 5 days, mice were then acclimated to bid oral gavage with vehicle for 7 days. Once acclimated, mice were culled into equal groups (n>10/group) according to body weight and compound dosing began. Mice received either vehicle or compound (bid, po) for periods up to 28 days, during which body weight and food intake were measured daily. Representative cohorts (based on BW) for each group were removed at 7, 14, 21 or 28 days for glucose tolerance tests and tissue analysis.
Mice are sacrificed by CO2 asphyxiation and terminal blood samples were collected via cardiac puncture. For HbA1c, whole blood is analyzed using a DCA2000+ glycated hemoglobin analyzer (Bayer Healthcare, Indianapolis, Ind.). Triglycerides, total cholesterol, and HDL-cholesterol were all measured using a Cholestech LDX lipid profile analyzer (Cholestech, Hayward, Calif.). As shown in FIG. 6 and FIG. 7, both plasma HbA1c and cholesterol levels were improved at 28 days in animals treated with compound 57 and compound 94 versus animals treated with vehicle alone.

Data set [2] deals with C57bl/6 mice. The data set is described as follows: 28 days oral dosing in diet-induced obese mice: body weight and food intake. The class given is in vivo. The note with it: bid po up to 28 days.
Description: as §1

The nature of data set [3]: Preliminary PK studies (IV/PO), oral bioavailability and brain/plasma ratio. Format: in vivo. The note with it: mouse, male diet-induced obese C57bl/6 mice. The method, then:
Male, diet-induced obese, ad libidum fed, C57bl/6 mice were used for these preliminary PK studies. They were dosed (n=3 mice per data point) either IV or PO. Mice ere sacrificed and the blood/brains collected at the following times: IV samples were taken at 5, 15, 30, 60, 120, 240, 480 minutes after dosing; PO samples were taken at 15, 30, 60, 120, 240, 480 minutes after dosing. Plasma and brain samples were evaluated for the presence of compound. Oral bioavailability (% F) was determined by comparing the plasma AUCIV and AUCPO. The brain/plasma ratio was determined by comparing the brain AUC and plasma AUC values.

In a further data set the test system is mice (DIO). Put plainly: Glucose tolerance test (GTT), insulin sensitivity in DIO mice. The class given is in vivo.
Description: as §1
On the night prior to the GTT, mice (DIO) within each dose group (n=8/group) had their body weight measured and were then fasted overnight for 16 hours prior to the GTT. On the morning of the GTT a 40 µL blood sample was removed from the tail for baseline fasted blood glucose and plasma insulin measurements. Mice then received their normal dose of compound. One hour later mice were dosed with glucose ([…], either IP or PO) and further tail bleeds (40 µL) were taken at 15, 30, 60 and 120 minutes after the glucose dose for blood glucose and plasma insulin measurements. Mice were sacrificed following the final sample time. Baseline fasted blood glucose levels are provided in FIG. 4a for compound 57 and in FIG. 4d for compound 94.

The target in the next data set is GHS-R (Homo sapiens, UniProt Q92847). The data set is described as follows: GHS-R antagonist activity (Ki) in a cell based assay. In short, it runs like this: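 Transfected COS-7 cells were labelled 24 h with [^3H]-myo-inositol and preincubated 30 min at 37 °C in HEPES buffer pH 7.4 with 10 mM LiCl, optionally with 1 U/ml adenosine deaminase. Compound was applied for 45 min at 37 °C. [^3H]-inositol phosphates were extracted with perchloric acid and isolated by anion-exchange resin.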
Chain of GHS-R (Q92847 whole entry, species assumed): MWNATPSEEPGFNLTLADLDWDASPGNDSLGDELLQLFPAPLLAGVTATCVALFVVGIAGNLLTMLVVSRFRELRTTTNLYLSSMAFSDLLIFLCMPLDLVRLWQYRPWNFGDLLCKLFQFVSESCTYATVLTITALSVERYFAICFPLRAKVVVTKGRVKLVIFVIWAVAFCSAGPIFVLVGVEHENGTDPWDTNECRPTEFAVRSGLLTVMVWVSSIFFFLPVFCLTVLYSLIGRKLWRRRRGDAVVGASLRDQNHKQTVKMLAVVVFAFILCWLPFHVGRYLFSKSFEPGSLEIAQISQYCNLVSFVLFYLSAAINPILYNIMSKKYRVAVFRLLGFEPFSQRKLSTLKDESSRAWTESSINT

Entries after “also recorded” stand apart in the source; their conditions may differ.

The term Kp denotes the ratio of the level in a tissue or fluid to that in plasma or blood. For orientation: bioavailability means the share of a dose that reaches the circulation, judged against a reference dose that is usually intravenous. One may read the Ki as the equilibrium dissociation constant of an inhibitor or competing ligand from its target.

`CCN(CC)CCCS(=O)(=O)N[C@H](CCc1ccccc1)c1nc(-c2ccc(OC)cc2)n[nH]1` [Compound 94, 3-Diethylamino-propane-1-sulfonic acid {(R)-1-[5-(4-methoxy-phenyl)-2H-[1,2,4]triazol-3-yl]-3-phenyl-propyl}-amide]: in the data set on C57bl/6 mice [1], the ghrelin-induced food intake entry is “block ghrelin-induced food intake; also recorded: reduced food intake”. In addition, the triglyceride levels entry in the data set with mice is on record as “improved triglyceride levels”. Also, the cholesterol levels entry in the data set on mice (versus vehicle) was “improved cholesterol levels”. In addition, the “plasma HbA1c levels” value in the data set on mice (versus vehicle) is reported as “improved plasma HbA1c levels”. For the same compound, the body weight entry in the data set on C57bl/6 mice [2] is recorded as “decreased body weight; also recorded: decrease in body weight”. The food intake entry with C57bl/6 mice [2] is “No apparent effect on food intake”. The Kp in data set [3] (brain and plasma, brain AUC vs plasma AUC) amounted to 0.087. For the same compound, in data set [3] (oral bioavailability, plasma AUC PO vs IV), the bioavailability came to 63.2%. The insulin sensitivity entry is “improvement in insulin sensitivity” with mice (DIO) (FIGS. 4a-4f, 7 to 28 days oral dosing); “improved insulin sensitivity” in the data set on mice (DIO) (GTT at 7 days of oral dosing); “improved insulin sensitivity” in the data set on mice (DIO) (GTT at 28 days of oral dosing). Further, the Ki on GHS-R was under 0.1 µM.
On GHS-R, `CCN(CC)CCCS(=O)(=O)N[C@H](CCc1ccccc1)c1nc(-c2ccc(OC)cc2F)n[nH]1` [Compound 115, 3-Diethylamino-propane-1-sulfonic acid {(R)-1-[5-(2-fluoro-4-methoxy-phenyl)-2H-[1,2,4]triazol-3-yl]-3-phenyl-propyl}-amide] gave a Ki of under 0.1 µM.
Turning to `CCN(CC)CCCS(=O)(=O)N[C@H](CCc1ccccc1)c1nc(Cc2ccsc2)n[nH]1` [Compound 122, 3-Diethylamino-propane-1-sulfonic acid [(R)-3-phenyl-1-(5-thiophen-3-ylmethyl-2H-[1,2,4]triazol-3-yl)-propyl]-amide], at GHS-R, the inhibition constant Ki was under 0.1 µM.
With `CCN(CC)CCCS(=O)(=O)N[C@H](CCc1ccccc1)c1nc(-c2ccc(OC)c(OC)c2)n[nH]1` [Compound 80, 3-Diethylamino-propane-1-sulfonic acid {(R)-1-[5-(3,4-dimethoxy-phenyl)-2H-[1,2,4]triazol-3-yl]-3-phenyl-propyl}-amide], the Ki at GHS-R lay in the range of 0.1 to 0.5 µM.
In turn, `CCN(CC)CCCS(=O)(=O)N[C@H](CCc1ccccc1)c1nc(-c2c(OC)cccc2OC)no1` [Compound 37, 3-Diethylamino-propane-1-sulfonic acid {(R)-1-[3-(2,6-dimethoxy-phenyl)-[1,2,4]oxadiazol-5-yl]-3-phenyl-propyl}-amide] had a Ki at GHS-R of 0.5 to 1 µM.
As to `CCN(CC)CCS(=O)(=O)N[C@H](CCc1ccccc1)c1nc(Cc2ccccc2Br)no1` [Compound 93, 2-Diethylamino-ethanesulfonic acid {(R)-1-[3-(2-bromo-benzyl)-[1,2,4]oxadiazol-5-yl]-3-phenyl-propyl}-amide], the Ki at GHS-R was under 0.1 µM.
`CCN(CC)CCCS(=O)(=O)N1CCC[C@@H]1c1nc(-c2ccc(OC)cc2)no1` [Compound 144, (R)-Diethyl-(3-{2-[3-(4-methoxy-phenyl)-[1,2,4]oxadiazol-5-yl]-pyrrolidine-1-sulfonyl}-propyl)-amine] yielded a Ki on GHS-R of 0.1 to 0.5 µM.
With `CCN(CC)CCCS(=O)(=O)N[C@H](CCc1ccccc1)c1nc(-c2ccc([N+](=O)[O-])cc2)n[nH]1` [Compound 65, 3-Diethylamino-propane-1-sulfonic acid {(R)-1-[5-(4-nitro-phenyl)-2H-[1,2,4]triazol-3-yl]-3-phenyl-propyl}-amide], the Ki on GHS-R is under 0.1 µM.
`CCN(CC)CCCS(=O)(=O)N[C@H](CCc1ccccc1)c1nc(-c2ccccc2C)no1` [Compound 4, 3-Diethylamino-propane-1-sulfonic acid [(R)-3-phenyl-1-(3-o-tolyl-[1,2,4]oxadiazol-5-yl)-propyl]-amide]: the Ki at GHS-R was under 0.1 µM.
Still for that read-out and setting: as for `CCN(CC)CCCS(=O)(=O)N[C@H](CCc1ccccc1)c1nc(-c2cccc(C#N)c2)n[nH]1` [Compound 50, 3-Diethylamino-propane-1-sulfonic acid {(R)-1-[5-(3-cyano-phenyl)-2H-[1,2,4]triazol-3-yl]-3-phenyl-propyl}-amide], the figure is under 0.1 µM.
At GHS-R, `CCN(CC)CCS(=O)(=O)N[C@H](COCc1ccccc1)c1nc(-c2ccccc2OC)no1` [Compound 49, 2-Diethylamino-ethanesulfonic acid {(R)-2-benzyloxy-1-[3-(2-methoxy-phenyl)-[1,2,4]oxadiazol-5-yl]-ethyl}-amide] showed a Ki of at least 1 µM.
Turning to `CCN(CC)CCS(=O)(=O)N[C@H](CCc1ccccc1)c1nc(-c2cccc(Br)c2)no1` [Compound 76, 2-Diethylamino-ethanesulfonic acid {(R)-1-[3-(3-bromo-phenyl)-[1,2,4]oxadiazol-5-yl]-3-phenyl-propyl}-amide], the Ki on GHS-R was at least 1 µM.
For `CCN(CC)CCCS(=O)(=O)N[C@H](CCc1ccccc1)c1nc(C2CCCCC2)n[nH]1` [Compound 139, 3-Diethylamino-propane-1-sulfonic acid [(R)-1-(5-cyclohexyl-2H-[1,2,4]triazol-3-yl)-3-phenyl-propyl]-amide], the Ki on GHS-R is under 0.1 µM.
As to `CCN(CC)CCCS(=O)(=O)N[C@H](CCc1ccccc1)c1nc(Cc2ccccc2C)no1` [Compound 68, 3-Diethylamino-propane-1-sulfonic acid {(R)-1-[3-(2-methyl-benzyl)-[1,2,4]oxadiazol-5-yl]-3-phenyl-propyl}-amide], the Ki at GHS-R was under 0.1 µM.
As for `CCN(CC)CCS(=O)(=O)N[C@H](CCc1ccccc1)c1nc(-c2ccccc2)no1` [Compound 17, 2-Diethylamino-ethanesulfonic acid [(R)-3-phenyl-1-(3-phenyl-[1,2,4]oxadiazol-5-yl)-propyl]-amide], at GHS-R, the Ki lay within 0.1 to 0.5 µM.
The same measure, in the same setting: as for `CCN(CC)CCCS(=O)(=O)N[C@H](C)c1nc(Cc2ccc(Br)cc2)no1` [Compound 147, (R)-3-Diethylamino-propane-1-sulfonic acid {1-[3-(4-bromo-benzyl)-[1,2,4]oxadiazol-5-yl]-ethyl}-amide], the figure is 0.1 to 0.5 µM; as for `CCN(CC)CCCS(=O)(=O)N[C@H](CCc1ccccc1)c1nc(Cc2c[nH]c3ccccc23)n[nH]1` [Compound 127, 3-Diethylamino-propane-1-sulfonic acid {(R)-1-[5-(1H-indol-3-ylmethyl)-2H-[1,2,4]triazol-3-yl]-3phenyl-propyl}-amide], under 0.1 µM; as for `CCN(CC)CCCS(=O)(=O)N[C@H](CCc1ccccc1)c1nc(Cc2ccccc2OC)no1` [Compound 100, 3-Diethylamino-propane-1-sulfonic acid {(R)-1-[3-(2-methoxy-benzyl)-[1,2,4]oxadiazol-5-yl]-3-phenyl-propyl}-amide], under 0.1 µM.
With `CCN(CC)CCCS(=O)(=O)N[C@H](CCc1ccccc1)c1nc(-c2ccc(Cl)cc2)n[nH]1` [Compound 22, 3-Diethylamino-propane-1-sulfonic acid {(R)-1-[5-(4-chloro-phenyl)-2H-[1,2,4]triazol-3-yl]-3-phenyl-propyl}-amide], the Ki at GHS-R was under 0.1 µM.
